# In US6953814B2, “Natural insect repellant” (Stratacor, Inc., priority 1997, dated 2005):
# Like-named read-outs stand apart in the source and are kept apart here.
# Key:
# [1] = tested on: Aedes aegypti mosquitoes; conditions: 0.31 mg/cm^2; cited from earlier work
# [2] = tested on: yellow fever mosquito (Aedes aegypti (L.)); conditions: human skin, approximately 2 mg/cm^2, time until two bites; DEET from Gilbert 1957; cited from earlier work
# [3] = tested on: malaria mosquito (Anopheles quadrimaculatus Say); conditions: human skin, approximately 2 mg/cm^2, time until two bites; cited from earlier work
# [4] = tested on: Aedes aegypti mosquitoes; assay: Mosquito repellency on gauze or polyester film (olfactometer); assay type: in vivo; conditions: Aedes aegypti, 0.05 h, cotton gauze or polyester film, 0.3 mg/cm^2, 3 minutes after application; read-out: Percent Repellency
# Excerpt: Olfactometer: A Fiensod and […] olfactometer, as modified by Bowen and Davis, measured the host-oriented flight response of female mosquitoes to volatile host emanations (Feinsod, F. M., and […]; An olfactometer for measuring host-seeking behavior of female Aedes aegypti (Diptera: Culicidae); J. Med. Entomol., 15: 282-285, 1979). The olfactometer (approximately 38 cm high) consisted of an upper and lower screened chamber with a closure between the chambers (FIG. 8). A fan placed above the upper chamber drew air through the apparatus at approximately 0.2 m/s. A temperature and humidity controlled chamber (5' wide by 6' long by 8' high) was constructed to house the test subject and the olfactometer. Rearing of Mosquitoes: A second environmental chamber, maintained at 27° C. and 80% humidity, was dedicated to the rearing of Aedes aegypti mosquitoes. […] Assays for Attraction of Mosquitoes to Human Subjects: A group of 30 volunteers, consisting of 14 females and 16 males and ranging in age from 24 to 68 years, was selected from the surrounding civilian population. Individuals were tested for their ability to attract Aedes aegypti mosquitoes contained in the olfactometer. Tests were conducted at a temperature of 27° C. and 50% relative humidity. […] A small fan was placed on top of the upper chamber to cause an air flow from the lower chamber to the upper chamber. A trial began when the closure between the upper and lower chamber was opened in the absence of a human host. […] This trial was repeated twice during a test session to obtain three replicates. Two additional test sessions, at time intervals of at least 1 week, were conducted to obtain at least 8-9 replicates for each of 24 subjects. Of the remaining 6 subjects, 3 were tested on two separate occasions for a total of 6 replicates per subject; 3 were tested on one occasion for a total of 3 replicates per subject. A total of 254 tests were conducted. Test compounds were dissolved in acetone or ethanol at a concentration of 150 mg/5 cc. Ethanol solutions of carboxylic acids were prepared just prior to use. Five hundred microliters of these solutions were applied to a 50 cm^2 circular area of a single layer of cotton gauze (Curity Curad gauze, Futuro Inc., Milford, Ohio) or nonwoven polyester film ([…], Inc.). The resultant dose was 0.3 mg/cm^2. […] The cup was attached to the bottom of the olfactometer (FIG. 8) so that air flowed through the stainless steel screen of the cup, through the treated gauze or film, and through the olfactometer. A volunteer's forearm was placed under the cup, so that air drawn into the cup and olfactometer was laden with human skin emanations. Tests were conducted as described in the preceding paragraph, “Assays for attraction of mosquitoes to human subjects”. Percent repellency was determined from the fraction of mosquitoes entering the lower chamber over a seven minute period. This assay is an approximate measure of the intrinsic repellency of a compound. Good repellency in this test is a necessary, but not sufficient, condition for good repellency on skin. Mosquito repellents must produce a vapor over the skin surface to confuse the host seeking behavior of the insect. However, volatilization must not be so great that the repellent action rapidly dissipates. Since volatilization from the skin will be different from an inanimate surface, skin tests are necessary to confirm that a compound will be a practical repellent.
# [5] = tested on: Aedes aegypti mosquitoes; assay: Mosquito repellency on skin (olfactometer, human forearm); assay type: in vivo; conditions: for Percent Repellency 2 h: 0.3 mg/cm^2, 2 h after application; for Percent Repellency 4 h: 0.3 mg/cm^2, 4 h after application; for repellency immediately after application to skin, compared to DEET: FIG. 4
# Excerpt: Olfactometer: A Fiensod and Spielman olfactometer, as modified by Bowen and Davis, measured the host-oriented flight response of female mosquitoes to volatile host emanations (Feinsod, F. M., and A. Spielman; An olfactometer for measuring host-seeking behavior of female Aedes aegypti (Diptera: Culicidae); J. Med. Entomol., 15: 282-285, 1979). The olfactometer (approximately 38 cm high) consisted of an upper and lower screened chamber with a closure between the chambers (FIG. 8). A fan placed above the upper chamber drew air through the apparatus at approximately 0.2 m/s. A temperature and humidity controlled chamber (5′ wide by 6′ long by 8′ high) was constructed to house the test subject and the olfactometer.
# Rearing of Mosquitoes: A second environmental chamber, maintained at 27° C. and 80% humidity, was dedicated to the rearing of Aedes aegypti mosquitoes. Routine shipments of eggs (American Biological Supply, Gainesville, Fla.) were used to maintain a continuous supply of adult 5-10 day old mosquitoes.
# Assays for Attraction of Mosquitoes to Human Subjects: A group of 30 volunteers, consisting of 14 females and 16 males and ranging in age from 24 to 68 years, was selected from the surrounding civilian population. Individuals were tested for their ability to attract Aedes aegypti mosquitoes contained in the olfactometer. Tests were conducted at a temperature of 27° C. and 50% relative humidity. For each trial 15 avid adult female Aedes aegypti mosquitoes (5-10 days post-emergence) were placed in the upper chamber. A small fan was placed on top of the upper chamber to cause an air flow from the lower chamber to the upper chamber. A trial began when the closure between the upper and lower chamber was opened in the absence of a human host. The number of mosquitoes entering the lower chamber within a 3 minute period was recorded. The volunteer then placed his or her arm beneath the lower chamber and the number of mosquitoes flying from the upper chamber to the lower chamber was recorded for the time intervals 0-1, 1-3, 3-5 and 5-7 minutes. This trial was repeated twice during a test session to obtain three replicates. Two additional test sessions, at time intervals of at least 1 week, were conducted to obtain at least 8-9 replicates for each of 24 subjects. Of the remaining 6 subjects, 3 were tested on two separate occasions for a total of 6 replicates per subject; 3 were tested on one occasion for a total of 3 replicates per subject. A total of 254 tests were conducted.
# Test compounds were dissolved in acetone or ethanol at a concentration of 300 mg/5 cc. Ethanol solutions of carboxylic acids were prepared just prior to use. Three hundred and fifty microliters of these solutions were applied to a 70 cm^2 rectangular area of the forearm. The resultant dose was 0.3 mg/cm^2. The repellent treated area was allowed to dry for 5 minutes prior to test. The treated skin area was placed under the olfactometer and tests were conducted as described in the preceding paragraph, “Assays for attraction of mosquitoes to human subjects”. Percent repellency was determined from the fraction of mosquitoes entering the lower chamber over a seven minute period.
# A commercial formulation of DEET (Skintastic, S. C. Johnson, Racine,) was applied to a 100 cm^2 area on the forearm of 1 volunteer (subject 02) to give a dose of 0.3 mg/cm^2 of DEET. A formulation of C8C9C10 (5% octanoic, 5% nonanoic, 5% decanoic in Dow Corning 345 volatile silicone fluid) was applied to a 100 cm^2 on the subject's other arm to give a dose of 0.3 mg/cm^2 total acids. Application sites were placed under the olfactometer at 1, 2 and 4 hours after treatment. Untreated areas on each arm were placed under the olfactometer at the completion of the treated area tests to check the avidity of the mosquitoes. Tests were done on four separate test days. […]
# [6] = rabbit, in vivo; cited from earlier work
# [7] = tested on: Aedes aegypti; conditions: King 1954; cited from earlier work
# [8] = cited from earlier work
# [9] = cited from earlier work; remark: listed apart in the source
# [10] = Vapor pressure; assay type: physicochemical; conditions: at 125° C., estimated or extrapolated from literature values
# [11] = tested on: Aedes aegypti mosquitoes; assay: Mosquito repellency on skin (olfactometer, human forearm); assay type: in vivo; conditions: on skin
compound,measurement,setting,value
C=CCCCCCCCCC(=O)O [Undecylenic Acid],Protection time against Aedes aegypti mosquitoes,[1],3.5 h
CCCCCCCCCC=CC(=O)O [2-Dodecenoic Acid],Protection time against Aedes aegypti mosquitoes,[1],2 h
"CCCCCCC(=O)O [Ethanthic, ethanthic acid, reference compound]",Protection time against yellow fever mosquitoes,[2],121 to 180 min
same,Protection time against malaria mosquitoes,[3],90+ min.
CCCCCCCCCC(=O)O [Decanoic acid],pest or weed control at 0.3 mg/cm2,[4],93 to 100%
same,Percent Repellency 2 h,[5]; on skin,53 (1) %
same,Percent Repellency 4 h,[5]; on skin,73 (1) %
same,Protection time against yellow fever mosquitoes,[2],300+ min.
same,Protection time against malaria mosquitoes,[3],61 to 90 min
same,Skin irritation,[6],moderate to severe irritation
O=C(c1ccccc1)c1ccccc1 [benzophenone],repellent to Aedes aegypti,[7],repellent
CCCCCCCC(=O)O [Octanoic acid],pest or weed control at 0.3 mg/cm2,[4],87 ± 1%
same,"repellency immediately after application to skin, compared to DEET",[5],comparable to DEET
same,Percent Repellency 2 h,[5]; on skin,36 (1) %
same,Percent Repellency 2 h,"[5]; on skin, listed as octanoic acid",36%
same,Skin irritation,[6],moderate to severe irritation
same,Irritation or sensitization reactions,"[8]; 1% in petrolatum, skin of human subjects",no irritation or sensitization reactions
same,Erythema,"[9]; repeated applications of 0.5 M propanol solutions, occlusive, human males",Erythema was observed
CCCCCCCCCCCC(=O)O [Dodecanoic acid],"Vol. (vapor pressure), (est)",[10],0.57 mm Hg
CCCCCCCC/C=C\CCCCCCCC(=O)O [Oleic Acid],Protection time against Aedes aegypti mosquitoes,[1],<0.25 h
"CCC=CC(=O)O [2-Pentenoic acid, 2-Pentenoic Acid]",pest or weed control at 0.3 mg/cm2,[4],100%
same,"Vol. (vapor pressure), (est)",[10],92 mm Hg
CCC(C)CC(=O)O (stereo not drawn) [3-Methylpentanoic Acid],pest or weed control at 0.3 mg/cm2,[4],43 ± 14%
same,"Vol. (vapor pressure), (est)",[10],49.5 mm Hg
CCCCC/C=C\C/C=C\C/C=C\C/C=C\CCCC(=O)O [Arachidonic Acid],Protection time against Aedes aegypti mosquitoes,[1],<0.25 h
CC(C)OC(=O)CCCCC(=O)OC(C)C [diisopropyl adipate],repellent to Aedes aegypti,[7],repellent
CCCCCCCCCCC(=O)O [Undecanoic acid],pest or weed control at 0.3 mg/cm2,[4],93 to 100%
same,"Vol. (vapor pressure), (est)",[10],1.5 (est) mm Hg
same,Protection time against yellow fever mosquitoes,[2],300+ min.
same,Protection time against malaria mosquitoes,[3],90+ min.
CCCCCCCCC(=O)O [Nonanoic acid],pest or weed control at 0.3 mg/cm2,[4],93 to 100%
same,"repellency two hours after skin application, ranking",[5]; FIG. 5,highest repellency
same,Percent Repellency 2 h,[5]; on skin,66 (1) %
same,Percent Repellency 4 h,[5]; on skin,47 (1) %
same,Protection time against yellow fever mosquitoes,[2],180+ min.
same,Protection time against malaria mosquitoes,[3],31 to 60 min
same,Skin irritation,[6],moderate irritation
same,Irritation or sensitization reactions,[8]; in vivo,no irritation or sensitization reactions
same,Erythema,[9]; in vivo,Erythema was observed
CCCCC/C=C\C/C=C\CCCCCCCC(=O)O [Linoleic Acid],Protection time against Aedes aegypti mosquitoes,[1],<0.25 h
"CCCCCC=CC(=O)O [2-Octenoic acid, 2-Octenoic Acid]",pest or weed control at 0.3 mg/cm2,[4],97 ± 5%
same,"repellency immediately after application to skin, compared to DEET",[5],less repellent
same,Percent Repellency 2 h,[5]; on skin,29 (1) %
same,Percent Repellency 4 h,[5]; on skin,27 (1) %
same,"Vol. (vapor pressure), (est)",[10],10.8 mm Hg
CCCCCCC=CC(=O)O [2-Nonenoic Acid],Protection time against Aedes aegypti mosquitoes,[1],2 h
O=C1CCCCN1 [Valerolactam],pest or weed control at 0.3 mg/cm2,[4],20%
"CCC(C)=CC(=O)O [3-Methyl-2-pentenoic acid, 3-Methyl-2-pentenoic Acid]",pest or weed control at 0.3 mg/cm2,[4],65%
same,"Vol. (vapor pressure), (est)",[10],49.5 mm Hg
CCCCCC(C)=CC(=O)O [3-Methyl-2-octenoic acid],pest or weed control at 0.3 mg/cm2,[4],95%
same,"repellency immediately after application to skin, compared to DEET",[5],less repellent
same,Percent Repellency 2 h,[5]; on skin,40 ± 5 (3) %
same,Percent Repellency 4 h,[5]; on skin,47 ± 21%
same,Percent Repellency 8 h,"[5]; on skin, 0.3 mg/cm^2, 8 h after application",60%
same,"Vol. (vapor pressure), (est)",[10],6 (est) mm Hg
same,Percent Repellency 2 h,"[11]; 0.6 mg/cm^2, 2 h after application",73% (1)
same,Percent Repellency 4 h,"[11]; 0.6 mg/cm^2, 4 h after application",40 (1) %
